US20260125334A1, “TREATMENT PROCESS FOR PFAS-CONTAINING COMPOUNDS” (priority 2023, published 2026)

How the values were obtained:
[1] = Effect of treatment rate on PFAS removal from synthetic AFFF wastewater, NMR (Example 4)
Description: Dimethyldimyristylammonium Bromide was tested in synthetic AFFF wastewater to determine if removal efficiency of the PFAS is affected by treatment rate. The treatment compound was added at 2%, 3%, and 4% w/w loading to AFFF wastewater. Solids were separated out via centrifugation and the solution was analyzed by NMR. […] FIG. 5 is the NMR spectra of each solution after treatment. […] As quat loading increased, the total area under the peaks was reduced. In the sample with 4% dimethyldioctadecylammonium bromide loading, total peak area was reduced by 90%.

[2] = PFAS removal kinetics in PFAS-contaminated field sample, LC-QTOF (Example 6); conditions: 0.01% treatment; aliquots at 0, 5, 10, 30, 90 minutes
Description: To determine PFAS removal kinetics, a PFAS-contaminated field sample was treated with dimethyldioctadecylammonium bromide. Aliquots were pulled at timed intervals and tested for remaining PFAS content. To a polypropylene bottle, 1000 mL of approximately 4 ppm PFAS-contaminated water was added to a 1 L HDPE bottle with a Teflon stir bar. The sample was stirred at 500 RPM for 10 minutes prior to the start of the experiment. To a 50 mL centrifuge tube, 20 mL aliquots were collected at 0, 5, 10, 30, and 90 minutes following treatment with 0.01%. Each sample was centrifuged to remove any remaining solids and passed through 0.45 micron filter prior to analysis by LC-QTOF. […] Subsequent PFAS removal was noted but minimal.

[3] = Short chain PFAS standard treated with 2% quat: all PFAS (Example 5)
Description: A standard with approximately 1000 ppt each of PFOA, perfluoro-n-pentanoic acid (PFPeA), and perfluorobutane sulfonic acid (PFBS) was prepared via serial dilution and treated with 2% dimethyldioctadecylammonium bromide in technical triplicate. Samples were centrifuged and the liquid was filtered into a new centrifuge tube using a 0.45 micron syringe filter. Table 2 indicates the concentration of each PFAS after treatment.

Structure (SMILES) | Concentration of remaining PFAS as concentration of quaternary ammonium compound increased ([1]; 2%, 3%, and 4% w/w loading) | Solubility in water (Solubility in water) | Remaining PFAS content between the T=0 and T=5 sample [2] | Reduction of total NMR peak area ([1]; 4% w/w loading) [%] | Reduction in all PFAS concentrations [3] [%]
CCCCCCCCCCCCCC[N+](C)(C)CCCCCCCCCCCCCC.[Br-] [Dimethyldimyristylammonium bromide, dimethyldimyristylammonium bromide] | decreased | – | – | – | –
CCCCCCCCCCCCCCCCCC[N+](C)(C)CCCCCCCCCCCCCCCCCC.[Br-] [Dimethyldioctadecylammonium bromide, dimethyldioctadecylammonium bromide] | – | nearly insoluble in water | rapid decrease | 90 | > 99.87
